Reference: US20060014704A1, “Compounds and their preparation for the treatment of Alzheimer's disease by inhibiting beta-amyloid peptide production” (priority 2004, published 2006)
“Also recorded” adds a separate entry of the source. Read-outs that look alike come from different tables or passages of the source.

Columns and labels:
[1] = system: Aβ40 and Aβ42 production, CHO cells stably transfected with human APP695; test: Secreted Aβ40/Aβ42 ELISA in CHO cells expressing human APP (CHO-APP cells); assay type: cell-based, Chinese hamster; parameters: key to Aβ42-lowering activity: Aβ42-lowering activity (“Yes”); no profound effects (“No”); non-determined (“ND”); Ginsenosides that affected cell viability are indicated as “Cytotoxic.”; conditions: for preference for Aβ42 vs. Aβ40 in cell-based assay: FIG. 6 / FIG. 12B; for production of Aβ42 in cells: general statement; for Aβ42-lowering activity: summary of Tables 1-3
Procedure: The CHO cells were treated with the indicated compounds (at 50 μg/ml) for 8 hrs. Aβ42 levels in the medium were measured by ELISA and normalized to intracellular full-length APP.
The potential effects of ginsenosides and their analogues in treating AD were examined. First, a number of ginsenosides were screened based on their effects on Aβ generation. The effects of various ginsenosides on Aβ (e.g., Aβ40 and Aβ42) production was initially accessed by incubating the Chinese hamster ovary (CHO) cells expressing human APP(CHO-APP cells) with each ginsenoside purified from unprocessed ginseng (known as “white ginseng”). These representative ginsenosides included Rb1, Rb2, Rc, Rd, Re, Re, Rg1 and Rg2 and differ in their side chains and sugar moieties.
After 8 hours of incubation, the media were collected and the levels of secreted Aβ40 and Aβ42 were determined by ELISA.

[2] = system: Aβ40 and Aβ42 production, CHO-APP/PS1 cells; test: Secreted Aβ ELISA in CHO-APP/PS1 cells (wild-type PS1); assay type: cell-based, Chinese hamster; conditions: for potency of Aβ42-reducing activity (rank) / secretion of Aβ42: 50 μM, 8 hrs, FIG. 11; for secretion of Aβ42: heat-processing derived ginsenosides
Procedure: (§1) The effects of Rg5 on the Aβ42 generation were much smaller as compared to Rgk351 and Rk1.
(§2) FIG. 10 depicts the effects of native ginsenosides on Aβ42 production. CHO cells stably transfected with human APP695 together with either wild-type (A, CHO-APP/PS1 cells) or ΔE9 FAD mutant (B, CHO-APP/ΔE9PS1 cells) forms of PS1 were used. Cells were treated with the indicated compounds (at 50 μM) for 8 hrs. Levels of secreted Aβ40 and Aβ42 in the medium were determined by ELISA and normalized to intracellular full-length APP. In CHO-APP/PS1 cells, average Aβ amounts in control samples were 320 pM for Aβ40 and 79 pM for Aβ42. The relative levels of Aβ and Aβ42 were normalized to values obtained from non-treated and vehicle-treated cells and are shown as % to control+s.d.). One of three representative experiments are shown.
(§3) CHO-APP/PS1 (A) and CHO-APP/ΔE9PS1 (B) cells were treated with the indicated compounds at 50 μM for 8 hrs and the levels of secreted Aβ40 and Aβ42 were determined as described in FIG. 1. […] The PS1-ΔE9 FAD mutation diminished the Aβ42 response to Rk1 treatment (B).

[3] = system: Aβ42 production, CHO-APP/ΔE9PS1 cells; test: Secreted Aβ ELISA in CHO cells co-expressing human APP and FAD mutant PS1 (ΔE9, L286V); assay type: cell-based, Chinese hamster; conditions: 50 μM, 8 hrs, FIG. 11B vs 11A
Procedure: as §1, §2, §3

γ-secretase = γ-secretase (Homo sapiens, UniProt P49768); test: Cell-free γ-secretase assay (CHAPSO-solubilized membrane fractions, recombinant substrates, Aβ ELISA); assay type: biochemical
Procedure: (A) CHAPSO-solubilized membrane fractions were incubated with recombinant γ-secretase substrates together with the indicated compounds (at 100 μM) and the levels of Aβ42 and Aβ40 were determined by ELISA as described (27-29). (B) Dose-response of Aβ40 and Aβ42-lowering activity of Rk1 and (20S)Rg3 in a cell-free γ-secretase assay.
Next, the inhibitory effects of Rk1 and (20S)Rg3 on Aβ generation in an in vitro γ-secretase assay was studied. […] In contrast, naproxen, an NSAID without Aβ42-lowering activity, had no effects on Aβ42 production (FIG. 15A).

[4] = system: Aβ species, CHO-APP cells; test: Mass spectrometric analysis of Aβ species produced from CHO-APP cells; assay type: cell-based, Chinese hamster; conditions: mass spectrometry, vs DMSO
Procedure: Note that treatment leads to a decrease in Aβ42 species (1-42), and elevation in both Aβ37 (1-37) and Aβ38 (1-38). Mass spectrometric analysis of Aβ species were performed as previously described (Wang R, Sweeny D, Gandy S E, Sisodia S S. The profile of soluble amyloid β-protein in cultured cell media. J. Bio. Chem. 1996; 271: 31894-31902).

[5] = system: Aβ40 and Aβ42 secretion, primary embryonic cortical neurons; test: Aβ secretion in primary embryonic cortical neurons derived from Tg2576 transgenic mice; assay type: cell-based, mouse
From the text: Treatment of Rk1 and Rg3 decreased the level of secreted Aβ40 and Aβ42.

[6] = system: Aβ42 production in mammalian cells; conditions: Tae-Wan Kim et al., patent application pending; cited from earlier work
[7] = system: full-length APP and APP C-terminal fragments, CHO-APP cells; test: Western blot analysis of APP processing in CHO-APP cells; assay type: cell-based, Chinese hamster; conditions: cell lysates
From the text: (§4) FIG. 13. depicts an analysis of APP processing after Rk1 treatment. Steady-state levels of full-length APP and APP C-terminal fragments (APP-CTFs) were examined by Western blot analysis using anti-R1 antibody. […] Correlated Aβ42 levels for each sample are shown in the bottom panel.

[8] = system: full-length APP and APP C-terminal fragments, Neuro2a-APPsw cells; test: Western blot analysis of APP processing in neuro2a cells expressing APPsw; assay type: cell-based, mouse; conditions: neuro2a cells expressing APPsw
From the text: as §4

cell viability = test: Cell viability of treated cells; assay type: cell-based; parameters: key to affected cell viability (Cytotoxic): Aβ42-lowering activity (“Yes”); no profound effects (“No”); non-determined (“ND”); Ginsenosides that affected cell viability are indicated as “Cytotoxic.”
Procedure: as §3
Tables 1-3 Structure of ginsenosides utilized in the study and their effects on Aβ42 generation. They differ at the two or three side chains attached to the common triterpene backbone known as dammarane. The common structure skeleton for each group of ginsenosides is shown in the top panel. Ginsenosides that harbor Aβ42-lowering activity are indicated in the far right column of the tables: Aβ42-lowering activity (“Yes”), no profound effects (“No”), and non-determined (“ND”). Ginsenosides that affected cell viability are indicated as “Cytotoxic.” Abbreviation for carbohydrates are as follows: Glc, D-glucopyranosyl; Ara (pyr), L-arabinopyranosyl; Ara (fur), L-arabinofuranyosyl; Rha, L-rhamnopyranosyl.
Steaming ginseng at high temperature gave rise to additional ginsenosides with enhanced pharmacological activity, including (20S)Rg3, Rk1 and Rg5 (22-25). […] Aβ40 levels were not changed by treatment with any of the ginsenosides tested. The potency of Aβ42-lowering activity was highest with Rk1 and (20S)Rg3. […] These studies provide a structure-activity relationship between the chemical structures of ginsenosides and Aβ42-lowering activity, further providing the basis for designing additional Aβ42-lowering analogues as well as for defining a class of compounds that harbor Aβ42-lowering activity.

With CC(C)=CCCC(C)(O)C1CCC2(C)C1C(O)CC1C3(C)CCC(OC4OC(CO)C(O)C(O)C4OC4OC(CO)C(O)C(O)C4O)C(C)(C)C3CCC12C [(20S)Rg3] the “preference for Aβ42 vs. Aβ40 in cell-based assay” value [1] was “primarily affect Aβ42 production”, the “production of Aβ42 in cells” value [1] was “lower the production of Aβ42” and the “potency of Aβ42-reducing activity (rank)” value [2] was “Rk1>/=(20S)Rg3>Rg5>(20R)Rg3; also recorded: highest”. For the same compound, the “secretion of Aβ42” value [2] was “selectively lowered the secretion of Aβ42”, the “Aβ42-lowering response in PS1 ΔE9 FAD mutant cells compared to PS1 wild-type cells” value [3] was “diminished” and the “Aβ generation in a cell-free γ-secretase assay” value (γ-secretase; FIG. 15) was “inhibits Aβ generation”. The “Aβ42 generation in vitro” value (γ-secretase; cell-free γ-secretase assay, FIG. 15 (100 μM in A)) was “inhibited both Aβ40 and Aβ42 with a similar potency”, the “Aβ40 generation in vitro” value (γ-secretase; cell-free γ-secretase assay, FIG. 15B) was “inhibited both Aβ40 and Aβ42 with a similar potency” and the IC50 (γ-secretase; cell-free γ-secretase assay, FIG. 15B, read-out: IC50 for Aβ40) was 27 ± 4 µM. For the same compound, the IC50 (γ-secretase; cell-free γ-secretase assay, FIG. 15B, read-out: IC50 for Aβ42) was 26 ± 7 µM, the “Aβ37 (1-37)” value [4] was “elevation” and the “Aβ38 (1-38)” value [4] was “elevation”. For the same compound, the “Aβ42 species (1-42)” value [4] was “decrease”, the “level of secreted Aβ40” value [5] was “decreased” and the “level of secreted Aβ42” value [5] was “decreased”. For the same compound, the “production of Aβ42 in mammalian cells” value [6] was “lower the production of Aβ42”.
For CC(C)=CC/C=C(\C)[C@H]1CC[C@]2(C)[C@@H]1[C@H](O)C[C@@H]1[C@@]3(C)CC[C@H](O[C@@H]4O[C@H](CO)[C@@H](O)[C@H](O)[C@H]4O[C@@H]4O[C@H](CO)[C@@H](O)[C@H](O)[C@H]4O)C(C)(C)[C@@H]3CC[C@]12C [Rg5], the “generation of Aβ42 (Aβ42 levels in the medium, ELISA, normalized to intracellular full-length APP)” value ([1]; 50 μg/ml, 8 hrs, FIG. 4) was “reduce the generation of Aβ42”, the “Aβ42-lowering effect compared with other agents” value ([1]; CHO-APP cells) was “much smaller” and the “preference for Aβ42 vs. Aβ40 in cell-based assay” value [1] was “preferentially reduced Aβ42 (vs. Aβ40)”. The “Aβ42 in the medium, dose-response” value ([1]; dose-dependent, FIG. 5 / FIG. 12A) was “reduced Aβ42; also recorded: lower Aβ42 in a dose-dependent manner”, the “production of Aβ42 in cells” value [1] was “lower the production of Aβ42” and the Aβ42 production ([1]; overnight treatment, FIG. 12B) was “reduce Aβ42 production”. For the same compound, the Aβ42-lowering activity [1] was “Yes”, the “potency of Aβ42-reducing activity (rank)” value [2] was “Rk1>/=(20S)Rg3>Rg5>(20R)Rg3; also recorded: less effective” and the “secretion of Aβ42” value [2] was “selectively lowered the secretion of Aβ42”. For the same compound, the “effects on Aβ42 generation compared to Rgk351 and Rk1” value ([2]; wild-type or FAD mutant presenilin 1, FIG. 8) was “much smaller”, the “Aβ42-lowering response in PS1 ΔE9 FAD mutant cells compared to PS1 wild-type cells” value [3] was “diminished” and the “APP C-terminal fragments (γ-secretase substrates), steady-state levels” value [7] was “increased accumulation”. The “full-length APP levels” value [7] was “not affected”, the “APP C-terminal fragments, steady-state levels” value [8] was “increased accumulation” and the “production of Aβ42 in mammalian cells” value [6] was “lower the production of Aβ42”.
In the case of CC(C)=CCC[C@](C)(O)[C@H]1CC[C@]2(C)[C@@H]1[C@H](O)C[C@@H]1[C@@]3(C)CC[C@H](O[C@@H]4O[C@H](CO)[C@@H](O)[C@H](O)[C@H]4O)C(C)(C)[C@@H]3CC[C@]12C [Rh2], the Aβ42-lowering activity [1] is reported as “Yes”, the “secretion of Aβ42” value [2] is reported as “exhibited Aβ42-lowering effects” and the cell viability (cell viability; 50 μM treatment) is reported as “partially affected”. The “affected cell viability (Cytotoxic)” value (cell viability; summary of Tables 1-3) was “Cytotoxic”.
